These results are taken from ChEMBL document CHEMBL1201862, “PubChem BioAssay data set” (2004).

Some test systems named below: TK-10; SW-620; M14; UACC-62; OVCAR-8; UO-31; SK-MEL-2; SN12C; MDA-MB-231; NCI-H460; CAKI-1; MDA-MB-435; U-251; MOLT-4; UACC-257; SF-295; HCT-15; A549; CCRF-CEM; SNB-75.
What all share (assay): NCI-60 cell line screen, 48 h

Counter-ions that a name gives are not always drawn.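 Grown in 96-well plates, cells were treated for 48 hours with each compound at five concentrations. Insufficient inhibition: endpoint recorded as highest concentration tested. GI50 is the concentration that inhibits growth by half.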 The source made the active and inactive calls. No stated cut-off is given here; in the data, active = GI50 up to about 1.1 µM and inactive = higher.

For `COc1ccc(-c2c(C#N)c(N)nc(S)c2C#N)cc1`, the GI50 in the test with TK-10 was 71.3 µM (inactive); in the test with SW-620 it was 22.2 µM (inactive); in the test with M14, 30 µM (inactive); with UACC-62, 41.5 µM (inactive); with OVCAR-8, 36.7 µM (inactive); in the test on UO-31 it was 34.9 µM (inactive). In addition, the GI50 is 36.1 µM (inactive) in the test with SK-MEL-2; 29.1 µM (inactive) with SN12C; 26.1 µM (inactive) with MDA-MB-231; 31 µM (inactive) in the test with NCI-H460; 42.4 µM (inactive) in the test on CAKI-1; 17.3 µM (inactive) in the test with MDA-MB-435. The GI50 was 40.5 µM (inactive) in the test on U-251; 17.1 µM (inactive) in the test on MOLT-4; 44.6 µM (inactive) in the test with UACC-257; 27.6 µM (inactive) in the test with SF-295; 33.3 µM in the test with HCT-15; 48.4 µM (inactive) in the test with A549.
`CC(=O)NC(Cc1c[nH]c2ccccc12)C(=O)O` (centres undefined): the GI50 in the test with CCRF-CEM, in the test on TK-10, in the test on SW-620, with M14, in the test on UACC-62 and with OVCAR-8 was > 100 µM (inactive) throughout. In addition, the GI50 in the test on UO-31, with SK-MEL-2, with SN12C, with MDA-MB-231, in the test with NCI-H460 and in the test with CAKI-1 was > 100 µM (inactive) each time. Besides, the GI50 in the test with MDA-MB-435 is > 100 µM (inactive); in the test on U-251, > 100 µM (inactive); in the test with UACC-257, 26.2 µM (inactive); with SF-295, > 100 µM (inactive); in the test on HCT-15, > 100 µM; in the test on A549, > 100 µM (inactive).
As for `Cn1c(=O)c2c(nc3n2CCC(=O)N3CCCCl)n(C)c1=O`, the GI50 with CCRF-CEM, with TK-10, in the test on SW-620, in the test with M14, in the test on UACC-62 and in the test with OVCAR-8 was > 100 µM (inactive) in each case. The GI50 in the test with SNB-75, with UO-31, with SK-MEL-2, with SN12C, in the test on MDA-MB-231 and in the test with NCI-H460 was > 100 µM (inactive) each time. Further, the GI50 in the test on MDA-MB-435 was > 100 µM (inactive); in the test with U-251, > 100 µM (inactive); with MOLT-4, > 100 µM (inactive); with UACC-257, > 100 µM (inactive); in the test on SF-295 it was > 100 µM (inactive); with HCT-15, > 100 µM. Besides, in the test with A549, the GI50 is > 100 µM (inactive).
`CCN(CC)CCNC(=O)c1cc2cc(NC(=O)c3cc4cc(N)ccc4[nH]3)ccc2[nH]1`: the GI50 in the test with CCRF-CEM was 9.53 µM (inactive); in the test with TK-10 it was > 100 µM (inactive); in the test with SW-620, 33.3 µM (inactive); with M14 it was 26.1 µM (inactive); in the test with UACC-62, 23.4 µM (inactive); with OVCAR-8 it was 32.2 µM (inactive). The GI50 with UO-31 is > 100 µM (inactive); in the test with SK-MEL-2, 29.1 µM (inactive); with SN12C, 39 µM (inactive); in the test with MDA-MB-231, 25.4 µM (inactive); in the test on NCI-H460, 34.6 µM (inactive); in the test with CAKI-1, 86.5 µM (inactive). Further, the GI50 in the test with MDA-MB-435 is 17.7 µM (inactive); in the test on U-251 it was 25.6 µM (inactive); with MOLT-4, 13.2 µM (inactive); in the test on UACC-257, 51.1 µM (inactive); in the test on SF-295, > 100 µM (inactive); in the test on HCT-15, > 100 µM. The GI50 with A549 was 41 µM (inactive).
For `COc1cc2c3c(n(C)c(=O)c2cc1OC)-c1cc2c(cc1/C3=C\CCCCl)OCO2`, the GI50 in the test with CCRF-CEM was 8.95 µM (inactive); with TK-10, 20.1 µM (inactive); with SW-620 it was > 100 µM (inactive); in the test on M14 it was 36.9 µM (inactive); with OVCAR-8, 49.4 µM (inactive); with SNB-75 it was 11.9 µM (inactive). In addition, the GI50 is 53.8 µM (inactive) with UO-31; 25.5 µM (inactive) in the test with SK-MEL-2; 27.3 µM (inactive) in the test on MDA-MB-231; 43.8 µM (inactive) in the test on NCI-H460; 25.9 µM (inactive) in the test with CAKI-1; 25.2 µM (inactive) in the test on U-251. Further, the GI50 is 6.68 µM (inactive) in the test with MOLT-4; 36.9 µM (inactive) in the test on UACC-257; 19.9 µM (inactive) with SF-295; > 100 µM in the test on HCT-15; > 100 µM (inactive) in the test with A549.
Take `CN(C)CCOC(c1ccccc1)c1ccccc1` [DIPHENHYDRAMINE HYDROCHLORIDE]: the GI50 in the test on CCRF-CEM is > 100 µM (inactive); in the test with TK-10 it was > 100 µM (inactive); in the test on SW-620 it was > 100 µM (inactive); in the test with M14 it was 51.2 µM (inactive); in the test on OVCAR-8 it was > 100 µM (inactive); with UO-31, > 100 µM (inactive). Moreover, the GI50 in the test on SK-MEL-2 is 72.4 µM (inactive); in the test with SN12C, > 100 µM (inactive); in the test on MDA-MB-231 it was > 100 µM (inactive); with NCI-H460, > 100 µM (inactive); with CAKI-1 it was > 100 µM (inactive); with MDA-MB-435, > 100 µM (inactive). Also, the GI50 was > 100 µM (inactive) in the test with MOLT-4, > 100 µM (inactive) in the test on UACC-257, > 100 µM with HCT-15 and > 100 µM (inactive) with A549.
In the case of `CCOC(=O)N/N=C(\Cc1ccc([N+](=O)[O-])cc1)OCC`, the GI50 in the test on CCRF-CEM, with TK-10, in the test with SW-620, with M14, in the test with UACC-62 and in the test with OVCAR-8 was > 100 µM (inactive) throughout. The GI50 in the test with SNB-75, in the test with UO-31, in the test on SK-MEL-2, with SN12C, with MDA-MB-231 and in the test on MDA-MB-435 was > 100 µM (inactive) in each case. Also, the GI50 with U-251 was > 100 µM (inactive); in the test on MOLT-4, > 100 µM (inactive); in the test with UACC-257, > 100 µM (inactive); in the test on SF-295 it was > 100 µM (inactive); in the test with HCT-15, > 100 µM; with A549, > 100 µM (inactive).
Turning to `C1CSCCSS[C@@H]2CCCCC2SC1` (some centres undefined), the GI50 in the test on CCRF-CEM, in the test on TK-10, in the test with SW-620, in the test on M14, with UACC-62 and in the test with OVCAR-8 was > 100 µM (inactive) each time. Moreover, the GI50 with SNB-75 was > 100 µM (inactive); in the test on UO-31 it was 78.9 µM (inactive); in the test on SN12C, > 100 µM (inactive); in the test on MDA-MB-231 it was > 100 µM (inactive); with NCI-H460 it was > 100 µM (inactive); in the test on MDA-MB-435, > 100 µM (inactive). Further, the GI50 in the test on U-251 is > 100 µM (inactive); in the test with MOLT-4, > 100 µM (inactive); with UACC-257, > 100 µM (inactive); with SF-295, > 100 µM (inactive); in the test on HCT-15 it was > 100 µM; in the test on A549, > 100 µM (inactive).
Take `CC(O)(C(=O)N(O)c1ccc(Cl)cc1)c1ccc(Cl)cc1` (centres undefined): the GI50 in the test on CCRF-CEM is 6.08 µM (inactive); in the test with TK-10, 29.7 µM (inactive); in the test with SW-620, 31.3 µM (inactive); with M14, 34 µM (inactive); in the test with UACC-62 it was 31.9 µM (inactive); with OVCAR-8 it was 27.2 µM (inactive). The GI50 in the test with UO-31 was 26.1 µM (inactive); in the test with SK-MEL-2, 22.2 µM (inactive); in the test with SN12C it was 37.4 µM (inactive); in the test with MDA-MB-231, 22.8 µM (inactive); with NCI-H460, 34.2 µM (inactive); with CAKI-1 it was 23.9 µM (inactive). In addition, the GI50 with MDA-MB-435 was 24.7 µM (inactive); with U-251, 23.6 µM (inactive); with MOLT-4, 12.5 µM (inactive); with UACC-257 it was 24.8 µM (inactive); in the test with SF-295 it was 27.3 µM (inactive); in the test with HCT-15, 19.2 µM. Besides, the GI50 with A549 was 26.4 µM (inactive).
Turning to `CNC(=O)OCC1=C(COC(=O)NC)C(C)N(c2ccccc2)C1` (centres undefined), the GI50 is 37.2 µM (inactive) in the test on CCRF-CEM; 24.5 µM (inactive) with TK-10; 46.1 µM (inactive) in the test on SW-620; 30.1 µM (inactive) in the test with M14; 26.2 µM (inactive) with UACC-62; 36.6 µM (inactive) in the test with OVCAR-8. The GI50 is 39.4 µM (inactive) in the test with SNB-75; 22.9 µM (inactive) in the test on UO-31; 22.6 µM (inactive) with SK-MEL-2; 72.9 µM (inactive) in the test with SN12C; 41.2 µM (inactive) with MDA-MB-231; 29 µM (inactive) in the test with NCI-H460. Besides, the GI50 in the test on MDA-MB-435 was 38.3 µM (inactive); in the test with U-251, 31.8 µM (inactive); in the test on MOLT-4, 23 µM (inactive); with UACC-257, 35.6 µM (inactive); with SF-295, 33.7 µM (inactive); with HCT-15, 31 µM. In addition, the GI50 with A549 was 48 µM (inactive).
As to `CN(C)c1ccc([S+]([O-])Nc2ccccc2)cc1` (centres undefined), the GI50 is > 100 µM (inactive) in the test on CCRF-CEM; > 100 µM (inactive) in the test with TK-10; 51.2 µM (inactive) in the test with SW-620; 38.5 µM (inactive) in the test with M14; 22.5 µM (inactive) in the test on UACC-62; 30.5 µM (inactive) in the test with OVCAR-8. Also, the GI50 in the test with UO-31 is 11.1 µM (inactive); with SK-MEL-2 it was 35.8 µM (inactive); in the test with SN12C, > 100 µM (inactive); in the test with MDA-MB-231, 33.3 µM (inactive); in the test on NCI-H460 it was 27.5 µM (inactive); in the test on MDA-MB-435 it was 21.1 µM (inactive). In addition, the GI50 with U-251 is 19.3 µM (inactive); in the test on MOLT-4, 53.8 µM (inactive); in the test with UACC-257 it was 27.3 µM (inactive); in the test with SF-295, 48.8 µM (inactive); with HCT-15, 11.6 µM; in the test on A549 it was 39 µM (inactive).
